Assay [1] relates to A673 cells. In words: Inhibition of proliferation of A673 cells (CyQUANT, 72 hour). The note with it: read-out: Inhibition of Proliferation of A673 Cells (calculated IC50). The class given is cell-based, human. On the procedure: A673 Cells: A673 cells are a cell line derived from human muscle Ewing's sarcoma. Representative compounds of the invention were tested at different concentrations (from 4 μM to […]; 0.5 log serial dilutions) for their ability to inhibit the proliferation of A673 cells. Known CDK inhibitors dinaciclib or N-((1S,3R)-3-((5-chloro-4-(1H-indol-3-yl)pyrimidin-2-yl)amino)cyclohexyl)-5-((E)-4-(dimethylamino)but-2-enamido)picolinamide and triptolide were used as positive controls. Cells were grown in Dulbecco's Modified Eagle's Medium, +10% FBS+1 mM Sodium Pyruvate. The cells were cultured at 37° C. in a humidified chamber in the presence of 5% CO2. Proliferation assays were conducted over a 72 hour time period. CyQUANT® (Life Technologies, Chicago, Ill. USA) was used to assess the anti-proliferative effects of the compounds following manufacturer's directions and utilizing the reagents supplied with the CyQUANT® kit.

In assay [2] the target is T1, CDK12 (aa686-1082)/Cyclin K complex (Homo sapiens, UniProt Q9NYV4).
T1 construct: CDK12 (aa686-1082)/Cyclin K complex
Briefly: CDK12 kinase inhibition assay (Caliper/LabChip EZ Reader). The note with it: CDK12 (aa686-1082)/Cyclin K 50 nM, ATP 2 mM, 3 hr at 27° C. The class given is biochemical. The procedure:
(§1) Compounds of the invention were assayed for inhibition of CDK7, CDK9, CDK12, and CDK2 activity at Biortus Biosciences (Jiangyin, Jiangsu Province, P.R. of China) using kinase assays for each CDK developed with a Caliper/LabChip EZ Reader (Perkin Elmer, Waltham, Mass.).
(§2) Furthermore, the CDK9 inhibition assay used CDK9/Cyclin T1 complex (8 nM) and “5-FAM-CDK9tide” peptide substrate (2 μM, synthesized fluorophore-labeled peptide with the following sequence: 5-FAM-GSRTPMY-NH2 where 5-FAM is defined above and NH2 signifies a C-terminal amide) with 10 mM MgCl2 in the buffer composition listed above. The CDK12 inhibition assay used CDK12 (aa686-1082)/Cyclin K complex (50 nM) and “5-FAM-CDK9tide” (2 μM) as defined above, with 2 mM MgCl2 in the buffer composition above. Additionally, the CDK2 inhibition assay used CDK2/Cyclin E1 complex (0.5 nM) and “5-FAM-CDK7tide” (2 μM) as defined above, with 2 mM MgCl2 in the buffer composition listed above.
(§3) The incubation period at 27° C. for each CDK inhibition assay was chosen such that the fraction of phosphorylated peptide product produced in each assay, relative to the total peptide concentration, was approximately 20% (±5%) for the uninhibited kinase (35 min. for CDK7, 35 min. for CDK2, 3 hr. for CDK12, 15 min. for CDK9).

In assay [3] the target is CDK9/Cyclin T1 complex (Homo sapiens, UniProt P50750). In words: CDK9 kinase inhibition assay (Caliper/LabChip EZ Reader). To be noted: CDK9/Cyclin T1 8 nM, ATP 2 mM, 15 min at 27° C. The class given is biochemical. The procedure: as §1, §2, §3
The target of assay [4] is CDK2/Cyclin E1 complex (Homo sapiens, UniProt P24941). Briefly: CDK2 kinase inhibition assay (Caliper/LabChip EZ Reader). The class given is biochemical. To be noted: CDK2/Cyclin E1 0.5 nM, ATP 2 mM, 35 min at 27° C. The procedure: as §1, §2, §3
For assay [5], the target named is CDK7/Cyclin H/MAT1 complex (Homo sapiens, UniProt P50613). In words: CDK7 kinase inhibition assay (Caliper/LabChip EZ Reader). It counts as biochemical. The note with it: CDK7/Cyclin H/MAT1 6 nM, ATP 2 mM, 35 min at 27° C. On the procedure:
as §1, §2, §3

CDK9/Cyclin T1 complex, sequence (P50750 whole entry): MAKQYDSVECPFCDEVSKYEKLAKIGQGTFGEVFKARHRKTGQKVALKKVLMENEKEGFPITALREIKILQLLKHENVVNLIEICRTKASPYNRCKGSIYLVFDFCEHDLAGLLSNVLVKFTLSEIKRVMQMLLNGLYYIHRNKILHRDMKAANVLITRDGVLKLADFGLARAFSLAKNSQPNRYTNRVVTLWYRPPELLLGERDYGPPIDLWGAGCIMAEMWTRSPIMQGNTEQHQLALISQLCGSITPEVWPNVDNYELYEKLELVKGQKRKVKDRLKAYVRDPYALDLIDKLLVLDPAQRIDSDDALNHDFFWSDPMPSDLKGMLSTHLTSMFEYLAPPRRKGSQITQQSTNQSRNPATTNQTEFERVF
CDK9/Cyclin T1 complex, sequence (O60563 whole entry partner): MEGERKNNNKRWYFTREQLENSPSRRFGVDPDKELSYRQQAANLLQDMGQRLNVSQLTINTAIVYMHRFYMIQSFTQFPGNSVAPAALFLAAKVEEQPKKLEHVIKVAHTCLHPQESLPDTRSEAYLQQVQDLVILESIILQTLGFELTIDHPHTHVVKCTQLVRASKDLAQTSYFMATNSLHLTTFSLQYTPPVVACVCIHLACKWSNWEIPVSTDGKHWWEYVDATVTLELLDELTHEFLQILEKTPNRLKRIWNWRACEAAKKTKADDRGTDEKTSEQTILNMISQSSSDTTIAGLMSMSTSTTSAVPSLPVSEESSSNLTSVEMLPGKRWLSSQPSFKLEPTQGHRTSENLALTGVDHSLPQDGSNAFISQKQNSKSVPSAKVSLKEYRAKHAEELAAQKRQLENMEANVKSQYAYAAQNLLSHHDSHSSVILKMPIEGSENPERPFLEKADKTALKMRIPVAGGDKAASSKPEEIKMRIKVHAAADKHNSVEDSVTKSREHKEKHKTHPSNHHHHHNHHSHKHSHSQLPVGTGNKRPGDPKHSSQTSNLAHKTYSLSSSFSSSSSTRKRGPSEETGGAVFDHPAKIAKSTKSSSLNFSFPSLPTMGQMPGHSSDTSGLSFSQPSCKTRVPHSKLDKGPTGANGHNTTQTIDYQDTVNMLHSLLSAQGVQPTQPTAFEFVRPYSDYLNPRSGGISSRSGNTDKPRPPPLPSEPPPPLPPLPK
CDK7/Cyclin H/MAT1 complex, sequence (P50613 whole entry): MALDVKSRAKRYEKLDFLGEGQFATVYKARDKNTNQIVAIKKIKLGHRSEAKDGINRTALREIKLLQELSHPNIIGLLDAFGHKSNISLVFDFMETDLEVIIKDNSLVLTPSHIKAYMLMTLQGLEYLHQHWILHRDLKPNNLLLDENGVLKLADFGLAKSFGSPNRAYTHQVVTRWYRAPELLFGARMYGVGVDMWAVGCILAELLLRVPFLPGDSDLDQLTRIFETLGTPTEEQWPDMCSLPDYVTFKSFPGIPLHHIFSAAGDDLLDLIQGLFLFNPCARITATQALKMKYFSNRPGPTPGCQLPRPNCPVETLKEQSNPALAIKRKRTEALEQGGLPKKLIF
CDK7/Cyclin H/MAT1 complex, sequence (P51946 whole entry partner): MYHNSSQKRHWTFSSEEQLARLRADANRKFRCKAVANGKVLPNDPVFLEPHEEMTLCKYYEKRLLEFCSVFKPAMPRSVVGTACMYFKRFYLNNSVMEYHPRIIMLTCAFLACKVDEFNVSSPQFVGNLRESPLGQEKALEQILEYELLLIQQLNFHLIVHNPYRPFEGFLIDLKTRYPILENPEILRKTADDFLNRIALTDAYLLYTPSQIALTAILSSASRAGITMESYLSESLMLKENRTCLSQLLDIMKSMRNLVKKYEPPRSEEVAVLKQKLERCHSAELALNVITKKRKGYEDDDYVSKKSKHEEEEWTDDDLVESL
CDK7/Cyclin H/MAT1 complex, sequence (P51948 whole entry partner): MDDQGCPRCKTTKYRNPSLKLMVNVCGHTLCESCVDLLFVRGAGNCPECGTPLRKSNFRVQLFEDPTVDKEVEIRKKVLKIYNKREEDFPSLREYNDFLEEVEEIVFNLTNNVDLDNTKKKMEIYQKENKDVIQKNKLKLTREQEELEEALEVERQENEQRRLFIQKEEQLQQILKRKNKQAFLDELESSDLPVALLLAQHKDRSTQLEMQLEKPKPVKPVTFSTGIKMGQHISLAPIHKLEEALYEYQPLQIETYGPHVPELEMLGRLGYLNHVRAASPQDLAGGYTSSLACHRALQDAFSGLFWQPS
T1 sequence (Q9NYV4 686-1082): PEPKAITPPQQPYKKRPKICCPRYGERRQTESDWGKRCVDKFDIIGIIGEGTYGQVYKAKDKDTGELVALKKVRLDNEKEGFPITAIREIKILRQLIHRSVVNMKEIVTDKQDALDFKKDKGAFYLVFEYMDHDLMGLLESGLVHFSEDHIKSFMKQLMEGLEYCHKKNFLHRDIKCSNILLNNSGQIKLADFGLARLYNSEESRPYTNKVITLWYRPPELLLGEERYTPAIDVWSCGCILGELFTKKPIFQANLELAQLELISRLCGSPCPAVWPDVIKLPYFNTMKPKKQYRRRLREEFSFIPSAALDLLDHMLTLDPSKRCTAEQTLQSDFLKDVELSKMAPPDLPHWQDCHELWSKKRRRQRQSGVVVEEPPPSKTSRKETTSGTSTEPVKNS
T1 sequence (O75909 whole entry partner, the tested form may be a part): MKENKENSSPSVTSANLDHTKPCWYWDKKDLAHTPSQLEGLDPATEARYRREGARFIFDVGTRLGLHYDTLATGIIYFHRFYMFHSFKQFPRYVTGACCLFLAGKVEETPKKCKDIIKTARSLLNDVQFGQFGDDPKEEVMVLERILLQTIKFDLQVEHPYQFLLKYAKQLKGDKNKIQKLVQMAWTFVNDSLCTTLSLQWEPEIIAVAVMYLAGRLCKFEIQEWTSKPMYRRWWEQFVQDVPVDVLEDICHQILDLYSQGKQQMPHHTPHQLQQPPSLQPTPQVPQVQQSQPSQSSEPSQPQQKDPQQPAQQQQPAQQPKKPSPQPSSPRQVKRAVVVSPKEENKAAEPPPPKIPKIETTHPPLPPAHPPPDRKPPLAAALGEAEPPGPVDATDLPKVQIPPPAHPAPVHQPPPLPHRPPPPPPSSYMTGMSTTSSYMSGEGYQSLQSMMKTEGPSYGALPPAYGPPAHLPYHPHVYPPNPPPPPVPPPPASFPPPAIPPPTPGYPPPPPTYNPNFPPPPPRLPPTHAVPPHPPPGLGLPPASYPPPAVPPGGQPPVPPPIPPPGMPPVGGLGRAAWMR

On to `CNC(=O)c1ccc2c(-c3nc(NC4CCCNC4)ncc3C(F)(F)F)c[nH]c2c1` (centres unmarked) [Compound 186], for which the IC50 in assay [1] is 20 to 200 nM; in assay [2], 200 to 5000 nM; in assay [3], 200 to 5000 nM; in assay [4], 200 to 5000 nM; in assay [5] it was under 20 nM.

Consider `FC(F)(F)c1cnc(N[C@H]2CCCNC2)nc1-c1c[nH]c2cc(-n3ccnc3)ccc12` [Compound 248], for which the IC50 in assay [2] is 200 to 5000 nM; in assay [3] it was 200 to 5000 nM; in assay [4], 200 to 5000 nM; in assay [5], under 20 nM.

`CCC1(Nc2ncc(Cl)c(-c3c[nH]c4ccccc34)n2)CCCNC1` (centres unmarked) [Compound 128]: the IC50 in assay [2], in assay [3], in assay [4] and in assay [5] was at least 5000 nM throughout.

As to `CSc1cnc(NC2CCCNC2)nc1-c1c[nH]c2cc(C#N)ccc12` (centres unmarked) [Compound 272], the IC50 in assay [1] is 20 to 200 nM.

In the case of `Clc1cnc(NC2(c3ccccc3)CCCNC2)nc1-c1c[nH]c2ccccc12` (centres unmarked) [Compound 130], the IC50 in assay [1] was 200 to 5000 nM; in assay [2], at least 5000 nM; in assay [5] it was at least 5000 nM.

With `FC(F)(F)c1cnc(NC2CNCC(c3nnc4ccccn34)C2)nc1-c1c[nH]c2ccccc12` (centres unmarked) [Compound 268], in assay [1], the IC50 is 200 to 5000 nM.

As to `CCc1cnc(NC2CCCNC2)nc1-c1c[nH]c2c(S(=O)O)cccc12` (centres unmarked) [Compound 363], the IC50 in assay [2] was at least 5000 nM; in assay [3] it was at least 5000 nM; in assay [4], at least 5000 nM; in assay [5], 20 to 200 nM.

Regarding `CC(C)C1CCC(Nc2nccc(-c3c[nH]c4ccccc34)n2)CN1` (centres unmarked) [Compound 237], the IC50 in assay [2] is 200 to 5000 nM; in assay [3] it was at least 5000 nM; in assay [4] it was 200 to 5000 nM; in assay [5] it was 20 to 200 nM.

Consider `CC1CCC(Nc2ncc(Cl)c(-c3c[nH]c4ccccc34)n2)CN1` (centres unmarked) [Compound 129], for which the IC50 in assay [1] is 20 to 200 nM; in assay [2] it was 200 to 5000 nM; in assay [5], 20 to 200 nM.

Consider `CC1CCNCC1Nc1ncc(Cl)c(-c2c[nH]c3ccccc23)n1` (centres unmarked) [Compound 126], for which the IC50 in assay [2] fell in the range of 200 to 5000 nM; in assay [3] it was 200 to 5000 nM; in assay [4], 200 to 5000 nM; in assay [5], 20 to 200 nM.

For the molecule `FC(F)(F)c1cnc(NC2CCCNC2)nc1-c1c[nH]c2c(-c3ccncc3)cccc12` (centres unmarked) [Compound 162], the IC50 was under 20 nM in assay [1], 200 to 5000 nM in assay [2], 200 to 5000 nM in assay [3] and 20 to 200 nM in assay [5].

On to `CC1(O)CCN(C(=O)c2ccc3c(-c4nc(NC5CCCNC5)ncc4C(F)(F)F)c[nH]c3c2)C1` (centres unmarked) [Compound 220], for which the IC50 in assay [2] is 200 to 5000 nM; in assay [3], at least 5000 nM; in assay [4], at least 5000 nM; in assay [5] it was under 20 nM.

Turning to `FC(F)(F)c1cnc(NC2CCCNC2)nc1-c1c[nH]c2c(Br)cccc12` (centres unmarked) [Compound 163], the IC50 in assay [1] was 20 to 200 nM; in assay [2], 200 to 5000 nM; in assay [3], 200 to 5000 nM; in assay [5], 20 to 200 nM.

Consider `CCc1cnc(N[C@H]2CCCNC2)nc1-c1c[nH]c2c(S(=O)(=O)O)cccc12` [Compound 362], for which the IC50 in assay [2] is at least 5000 nM; in assay [3], at least 5000 nM; in assay [4] it was at least 5000 nM; in assay [5], 20 to 200 nM.

Turning to `CCc1cnc(N[C@H]2CCCNC2)nc1-c1c[nH]c2cc(S(C)(=O)=O)ccc12` [Compound 271], the IC50 in assay [1] was 200 to 5000 nM.

`Cn1cc(-c2cccc3c(-c4nc(NC5CCCNC5)ncc4C(F)(F)F)c[nH]c23)cn1` (centres unmarked) [Compound 164]: the IC50 in assay [1] was under 20 nM; in assay [2], 200 to 5000 nM; in assay [3], 200 to 5000 nM; in assay [5], 20 to 200 nM.

With `CCc1cnc(NC2CCCNC2)nc1-c1n[nH]c2ccc(C)cc12` (centres unmarked) [Compound 120], the IC50 is 200 to 5000 nM in assay [2], at least 5000 nM in assay [3], at least 5000 nM in assay [4] and 200 to 5000 nM in assay [5].

For the molecule `CC1(O)CCC(c2cccc3c(-c4nc(NC5CCCNC5)ncc4C(F)(F)F)c[nH]c23)CC1` (centres unmarked) [Compound 193], the IC50 in assay [2] fell in the range of 200 to 5000 nM; in assay [3] it was 200 to 5000 nM; in assay [4], 200 to 5000 nM; in assay [5] it was 20 to 200 nM.

The values above are taken from patent US20230000870A1, “METHODS OF TREATING CANCER IN BIOMARKER-IDENTIFIED PATIENTS WITH INHIBITORS OF CYCLIN-DEPENDENT KINASE 7 (CDK7)” (Syros Pharmaceuticals, Inc., priority 2019, published 2023).
